One series concerns COL1A1 promotor. The series can be described thus: COL1A1 promotor single luciferase reporter gene model in LX-2 (LX2-COL) cells. The format is cell-based, human. As to conditions: LX-2 cells treated simultaneously with TGFβ1 and compound; for inhibition at 40 µM: Homo sapiens, read-out: Inhibition Percentage (inhibition rate of COL1A1 promotor's activity in LX2 cells). For orientation: In a reporter assay the amount or activity of a reporter protein is the signal.

A short description of series [1]: MTT cytotoxicity / cell survival assay. The class given is cell-based. As to conditions: human, HepG2 cells, read-out: CC50 (cytotoxic concentration required to inhibit HepG2 cell growth by 50%). The method, then:
A single luciferase reporter gene detection model was applied to screen the inhibitory effects towards COL1A1 promotor of all target compounds in human hepatic stellate LX-2 cells at the concentration of 40 μM, taking EGCG and compound 1 as the positive controls. The LX2-COL monoclone cell line was treated simultaneously with TGFβ1 and a target compound [13]. The cytotoxicity was determined using MTT assay in HepG2 cells.
The cell survival was evaluated by MTT assay. HepG2 cells were seeded at density of 6 × 10^3 cells/well in 96-well plate. Cells were treated with various concentrations of matrinic derivate until the cells at 50% confluence. After 24 h of incubation, 20 µL of the MTT (5 mg/mL) solution was added into each plate and incubated for 4 h at 37 °C, 5% CO2. Subsequently, the culture supernatant was replaced with 150 µL DMSO to dissolve the formazan crystal. The absorbance at 570 nm was measured using a microplate reader (ELx800, BioTek Instruments, Winooski, VT, USA).

The subject of series [2] is Smad2 / phosphorylated Smad2 (TGFβ/Smad pathway). The series can be described thus: Smad2 and p-Smad2 levels by western blot in LX-2 cells. The format is cell-based, human. The protocol: Considering the key role of TGFβ/Smad pathway in activating COL1A1, the effects of the three compounds on Smad and phosphorylated Smad were then evaluated.
(§1) LX-2 cells were cultured as described above. Briefly, cells were washed with phosphate-buffered saline (PBS) and were lysed in radioimmunoprecipitation assay (RIPA) lysis for 30 min in 4 °C; the supernatant was collected after centrifugation at 12,000× g, 4 °C for 15 min. Equal amounts of protein were quantified with Bradford assay, separated by SDS-PAGE and transferred to polyvinylidene difluoride membrane. The membranes were blocked for one hour at room temperature in PBST containing 5% milk and probed with specific first antibodies overnight at room temperature. Membrane was washed 3 times by PBST, followed by horseradish peroxidase-conjugated secondary antibodies and GAPDH. The proteins were visualized using chemiluminescence reagents.
A general note: In western blotting, separated proteins are transferred to a membrane and probed.

The next series has as its system COL1A1 protein. The series can be described thus: COL1A1 protein level by western blot in LX-2 cells. The class given is cell-based. As to conditions: Homo sapiens, TGFβ1 2 ng/mL, read-out: COL1A1 protein level inhibition rate. The method, then:
Next, compounds 6i, 6l and 6n were chosen as the key compounds to verify their inhibitory effects against COL1A1. LX-2 cells were stimulated with TGFβ1 (2 ng/mL), and then treated with compounds 6i, 6l and 6n (80 μM) respectively, taking 1 as the control. Their anti-COL1A1 effects were evaluated on RNA level by real-time PCR amplification. […] Then their anti-COL1A1 effects were investigated on the protein level by western blot assays.
as §1

For another series, the system named is α-SMA mRNA. The series can be described thus: α-SMA mRNA level by real-time PCR in TGFβ1-stimulated LX-2 cells. The format is cell-based, human. As to conditions: 80 μM, TGFβ1 2 ng/mL. The method, then:
(§2) α-SMA is a more commonly recognized indicator for liver fibrosis, and it could be induced by a stimulation of TGFβ1 [22], therefore, the amounts of α-SMA were also evaluated.
LX-2 cells were seeded in 6-well plate, cultured in DMEM, containing 10% fetal bovine serum (FBS) in a 5% CO2 atmosphere at 37 °C. And serum-free culture was required until the cells at 90–95% confluence. After 24 h, cells were treated with TGFβ1 (2 ng/mL) and matrinic derivatives (80 μM) for 24 h. Total RNA from the LX-2 cells was extracted using Trizol reagent, purified by NucleoSpin RNA Clean-up. Reverse transcription was performed with a Transcriptor first strand cDNA synthesis kit. The cDNA was then analysis by ABI 7500 Fast Real-Time PCR System (ThermoFisher Scientific, Singapore) using TaqMan probes of TGFβ1, COL1A1, α-SMA, and GAPDH (sequence reserved by ABI, Foster City, CA ,USA) and FastStart Universal Probe master mix (Roche, Indianapolis, IN, USA).
Background: In qPCR the cycle at which signal appears reflects the starting amount.

A further series concerns α-SMA protein. The series can be described thus: α-SMA protein level by western blot in LX-2 cells. The format is cell-based. To be noted: Homo sapiens, TGFβ1 2 ng/mL, read-out: α-SMA protein level inhibition rate. The protocol:
as §2, §1

SMILES strings stand for the structures. Structures can show the parent of a compound that is named as a salt.

As a reminder, the melting point is the temperature, or range, at which the solid turns liquid. A word on the inhibition: it is the relative decrease from the control value, in per cent.

In the case of `CN(C)c1nnc(CCCC2C3CCCN4CCCC(CN2Cc2ccccc2)C34)s1` (centres unmarked) (as salt: hydrochloride) [Compound 6k, 12-N-Benzyl-3′-(N,N-dimethyl-5-amino-1,3,4-thiadiazol-2-yl)-matrinic propane hydrochloride], the melting point lay within 189 to 190 °C.
Turning to `O=C(O)CCCC1C2CCCN3CCCC(CN1S(=O)(=O)c1ccc(C(F)(F)F)cc1)C23` (centres unmarked) [Compound 5a], in the series on COL1A1 promotor, the inhibition at 40 µM is -3.7%.
Consider `O=C(O)CCCC1C2CCCN3CCCC(CN1Cc1ccccc1)C23` (centres unmarked) [Compound 5b, 12-N-Benzyl matrinic acid], for which the melting point is 95 to 96 °C. The inhibition at 40 µM in the series on COL1A1 promotor is -33.6%.
Take `Cc1ccc(CN2CC3CCCN4CCCC(C2CCCC(=O)O)C34)cc1` (centres unmarked) [Compound 5c, 12-N-p-Methylbenzyl matrinic acid]: the melting point was in the range of 106 to 108 °C. The inhibition at 40 µM with COL1A1 promotor is -116%.
`O=C(O)CCCC1C2CCCN3CCCC(CN1Cc1ccc(Br)cc1)C23` (centres unmarked) [Compound 5d, 12-N-p-Bromobenzyl matrinic acid] registered a melting point of 134 to 135 °C. In addition, the inhibition at 40 µM in the series on COL1A1 promotor amounted to 6.4%.
As to `Cc1ccc(S(=O)(=O)N2CC3CCCN4CCCC(C34)C2CCCc2nnc(N)s2)cc1` (centres unmarked) [Compound 6a, 12-N-p-Methlybenzenesulfonyl-3′-(5-amino-1,3,4-thiadiazol-2-yl)-matrinic propane], the melting point was 237 °C (dec.). For the same molecule, the inhibition at 40 µM in the series with COL1A1 promotor was determined as 21.2%. Moreover, the CC50 at 24 h in series [1] was > 320 µM.
Molecule `CNc1nnc(CCCC2C3CCCN4CCCC(CN2S(=O)(=O)c2ccc(C)cc2)C34)s1` (centres unmarked) [Compound 6b, 12-N-p-Mmethlybenzenesulfonyl-3′-(N-methyl-5-amino-1,3,4-thiadiazol-2-yl)-matrinic propane] came in with a melting point of 169 to 170 °C. In the series with COL1A1 promotor, the inhibition at 40 µM was found to be 12.8%.
The molecule `Cc1ccc(S(=O)(=O)N2CC3CCCN4CCCC(C34)C2CCCc2nnc(NC(C)C)s2)cc1` (centres unmarked) [Compound 6c, 12-N-p-Methylbenzenesulfonyl-3′-(N-iso-propyl-5-amino-1,3,4-thiadiazol-2-yl)-matrinic propane] yielded a melting point of 193 to 194 °C. Besides, the inhibition at 40 µM in the series on COL1A1 promotor was -84.2%.
The like results for `Cc1ccc(S(=O)(=O)N2CC3CCCN4CCCC(C34)C2CCCc2nnc(N(C)C)s2)cc1` (centres unmarked) [Compound 6d, 12-N-p-Methylbenzenesulfonyl-3′-(N,N-dimethyl-5-amino-1,3,4-thiadiazol-2-yl)-matrinic propane] were, in that order, 142 to 143 °C and -36.7%.
For `Nc1nnc(CCCC2C3CCCN4CCCC(CN2S(=O)(=O)c2ccc(C(F)(F)F)cc2)C34)s1` (centres unmarked) [Compound 6f, 12-N-p-Ttrifluoromethlybenzenesulfonyl-3′-(5-amino-1,3,4-thiadiazol-2-yl)-matrinic propane], the melting point was 206 °C (dec.). For the same molecule, the inhibition at 40 µM in the series with COL1A1 promotor was -19%.
The corresponding values for `CNc1nnc(CCCC2C3CCCN4CCCC(CN2S(=O)(=O)c2ccc(C(F)(F)F)cc2)C34)s1` (centres unmarked) [Compound 6g, 12-N-p-Trifluoromethlybenzenesulfonyl-3′-(N-methyl-5-amino-1,3,4-thiadiazol-2-yl)-matrinic propane] are 181 °C (dec.) and 6.1%.
With `CN(C)c1nnc(CCCC2C3CCCN4CCCC(CN2S(=O)(=O)c2ccc(C(F)(F)F)cc2)C34)s1` (centres unmarked) [Compound 6h, 12-N-p-Trifluoromethlybenzenesulfonyl-3′-(N,N-dimethyl-5-amino-1,3,4-thiadiazol-2-yl)-matrinic propane], the melting point lay within 147 to 148 °C. Besides, in the series on COL1A1 promotor, the inhibition at 40 µM was -35.2%.
`CNc1nnc(CCCC2C3CCCN4CCCC(CN2Cc2ccccc2)C34)s1` (centres unmarked) [Compound 6j, 12-N-Benzyl-3′-(N-methyl-5-amino-1,3,4-thiadiazol-2-yl)-matrinic propane] had a melting point of 137 to 138 °C. In addition, the inhibition at 40 µM in the series with COL1A1 promotor was determined as 29.5%.
For `CN(C)c1nnc(CCCC2C3CCCN4CCCC(CN2Cc2ccccc2)C34)s1` (centres unmarked) [Compound 6k, 12-N-Benzyl-3′-(N,N-dimethyl-5-amino-1,3,4-thiadiazol-2-yl)-matrinic propane hydrochloride], in the series with COL1A1 promotor, the inhibition at 40 µM is 15.2%.
As to `Cc1ccc(CN2CC3CCCN4CCCC(C2CCCc2nnc(N)s2)C34)cc1` (centres unmarked) [Compound 6l, 12-N-p-Methylbenzyl-3′-(5-amino-1,3,4-thiadiazol-2-yl)-matrinic propane], the melting point is 167 to 168 °C. Besides, in the series with COL1A1 promotor, the inhibition at 40 µM is 38.7%. In series [2], the “Effect on Smad level” value is “did not affect the Smad level” and the “Effect on phosphorylation level of Smad2 (in words)” value was “repressed the phosphorylation level of Smad2 significantly”. The inhibition at 80 µM in the series with COL1A1 protein came out at 99.3%. The “α-SMA mRNA level inhibitory rate” value in the series on α-SMA mRNA is 82.5%. The CC50 at 24 h in series [1] is > 320 µM. Besides, the inhibition at 80 µM in the series on α-SMA protein was 93.8%.
The molecule `CNc1nnc(CCCC2C3CCCN4CCCC(CN2Cc2ccc(C)cc2)C34)s1` (centres unmarked) [Compound 6m, 12-N-p-Methylbenzyl-3′-(N-methyl-5-amino-1,3,4-thiadiazol-2-yl)-matrinic propane] displayed a melting point of 163 to 164 °C. The inhibition at 40 µM in the series with COL1A1 promotor is -29.6%.
`Nc1nnc(CCCC2C3CCCN4CCCC(CN2Cc2ccc(Br)cc2)C34)s1` (centres unmarked) [Compound 6o, 12-N-p-Bromobenzyl-3′-(5-amino-1,3,4-thiadiazol-2-yl)-matrinic propane]: the melting point lay in the range of 193 to 194 °C. For the same molecule, the inhibition at 40 µM with COL1A1 promotor was 7.8%.
In the case of `CC(=O)Nc1nnc(CCCC2C3CCCN4CCCC(CN2S(=O)(=O)c2ccc(C)cc2)C34)s1` (centres unmarked) [Compound 7a, 12-N-p-Methylblenzenesulfonyl-3′-(5-acetylamino-1,3,4-thiadiazol-2-yl)-matrinic propane], the melting point is 273 °C (dec.). Besides, the inhibition at 40 µM in the series with COL1A1 promotor was determined as 33.9%.
As for `CC(=O)Nc1nnc(CCCC2C3CCCN4CCCC(CN2S(=O)(=O)c2ccc(C(F)(F)F)cc2)C34)s1` (centres unmarked) [Compound 7b, 12-N-p-Trifluoromethlybenzenesulfonyl-3′-(5-acetylamino-1,3,4-thiadiazol-2-yl)-matrinic propane], the melting point is 197 °C (dec.). Also, the inhibition at 40 µM in the series with COL1A1 promotor is -6%.
The corresponding values for `CC(=O)Nc1nnc(CCCC2C3CCCN4CCCC(CN2Cc2ccccc2)C34)s1` (centres unmarked) [Compound 7c, 12-N-Benzyl-3′-(5-acetylamino-1,3,4-thiadiazol-2-yl)-matrinic propane] are 188 to 189 °C and 12.9%.
The like results for `CC(=O)Nc1nnc(CCCC2C3CCCN4CCCC(CN2Cc2ccc(C)cc2)C34)s1` (centres unmarked) [Compound 7d, 12-N-p-Methylbenzyl-3′-(5-acetylamino-1,3,4-thiadiazol-2-yl)-matrinic propane] were, in that order, 226 °C (dec.) and 27%.
`O=C(O[C@@H]1Cc2c(O)cc(O)cc2O[C@@H]1c1cc(O)c(O)c(O)c1)c1cc(O)c(O)c(O)c1` [EGCG, epigallocatechin gallate, reference compound]: the “Inhibition Percentage (inhibition rate of COL1A1 promotor's activity in LX2 cells)” value in the series on COL1A1 promotor (40 μM) is recorded as 27.5% ± 7.9%.

Source of the values: article PMC6099493, “Discovery of Matrinic Thiadiazole Derivatives as a Novel Family of Anti-Liver Fibrosis Agents via Repression of the TGFβ/Smad Pathway” (Molecules : A Journal of Synthetic Chemistry and Natural …, 2018).
